Key:
[1] = test system: human hepatocellular carcinoma cell lines (HepG2, Hep3B, Huh7); assay: Cell growth and cell death of human HCC cell lines (LOFU, WP1066); format: cell-based; details: WP1066 added prior LOFU treatment
RM1 tumor = RM1 tumor growth in C57Bl/6 mice (LOFU, 17AAG); format: in vivo, mouse; details: for tumor volume: intraperitoneal, three times a week, untreated tumor 1879±98.65 mm^3
Method: (§1) This protocol yielded an approximate in situ spatial-peak temporal-average acoustic intensity of 270 W/cm^2, resulting in estimated average infra-tumoral temperature elevation of 3.2° C. Post-treatment, there were no signs of normal tissue toxicity such as alopecia, thermal damage, or skin wounds. […] Control mice were injected with equal volume of the vehicle DMSO, which was used to solubilize 17AAG.
(§2) Tumor model and treatment; C57Bl/6 and BalbC nu/nu mice were injected subcutaneously with 1×10^5 RM-1 (murine prostate cancer cell line) and 1×10^6 PC3 (human prostate cancer cell line) cells on the flank, respectively. Approximately 10 days later, the tumor became palpable (3-5 mm in diameter), whereupon LOFU treatment was initiated. […] Palpable tumors were treated with LOFU every 3-4 days for five fractions administered over two weeks. Animals received 17AAG three times a week during this time. Tumor volume measurements were performed twice weekly using Vernier calipers along with simultaneous physical assessment of signs of systemic toxicity (malaise and diarrhea).

[2] = Toxicity and dose finding of 17AAG in mice; format: in vivo, mouse
Method: as §1
Thus, these dose levels were selected for the current study. The goal was to combine two therapies that are nontoxic, albeit subtherapeutic, and examine whether the combination can be therapeutic. […] To detect the level of ER stress, the expression levels of ER chaperones, ERp44, ERp57, and ERp72 were quantitated among different treatment groups. ERp44 is responsible for oxidative protein folding. ERp57 is an ER resident thiol disulfide oxidoreductase while Erp72 is a disulfide isomerase. All these proteins participate in the protein folding machinery of the ER.
as §2
Kaplan-Meier Survival analysis: Mice survival/mortality in different treatment groups was analyzed by Kaplan-Meier as a function of radiation dose using Sigma-Plot and GraphPad Prism (version 4.0 for OS X, San Diego, CA, USA) software.

TPSA23 tumor cells = assay: Clonogenic assay, TPSA23; format: cell-based, murine

SMILES: C[C@H](NC(=O)/C(C#N)=C/c1cccc(Br)n1)c1ccccc1 [WP1066]
- inducing cell death [1]: superior effect on inducing cell death

SMILES: C=CCNC1=C2C[C@@H](C)C[C@H](OC)[C@H](O)[C@@H](C)/C=C(\C)[C@H](OC(N)=O)[C@@H](OC)/C=C\C=C(/C)C(=O)NC(=CC1=O)C2=O [17AAG, 17-N-allylamino-17-demethoxygeldanamycinan]
- average estimated tumor growth slower compared to control group (RM1 tumor; 17AAG 25 mg/kg body weight): 9%
- interval within which all animals achieved tumor size 2000 mm^3 (RM1 tumor; 17AAG 25 mg/kg body weight): 26 to 30 days
- tumor volume (RM1 tumor; 17AAG 50 mg/kg b.w.): 964 mm3
- tumor volume (RM1 tumor; 17AAG 75 mg/kg b.w.): 485±24.25 mm3
- death of mice (Kaplan Meier survival analysis) ([2]; 75 mg/kg of body weight, after 21 days of treatment, C57Bl/6 mice): 50%
- low dose found to be nontoxic ([2]; Balb/c nude mice): 14 mg/kg
- low dose found to be nontoxic ([2]; C57Bl/6 mice): 25 mg/kg
- normal tissue toxic effect ([2]; low dose 17AAG 25 mg/kg body weight): did not show any normal tissue toxic effect

SMILES: CNC(=O)c1ccc(N2C(=S)N(c3cnc(C#N)c(C(F)(F)F)c3)C(=O)C23CCC3)cc1F [apalutamide]
- clonogenicity (colonies) (TPSA23 tumor cells; 5 μM apalutamide in combination with LOFU, vs apalutamide or LOFU alone): significantly fewer colonies
- clonogenicity (TPSA23 tumor cells; 10 μM apalutamide alone): significant reduction in clonogenicity
- clonogenicity (TPSA23 tumor cells; 10 μM apalutamide in combination with LOFU): still more effective

Reference: US12434076B2, “Low energy immune priming for treating cancer and metastasis” (priority 2017, dated 2025)
